From patent publication US20180206529A1, “FAST-DISSOLVING, CO-CRYSTALLINE FORMS OF SODIUM CHLORIDE” (NESTEC S.A., priority 2015, published 2018)

Columns and labels:
Assay type in all cases: physicochemical
[1] = Dissolution kinetics via microscopic analysis (video-microscopy of one individual crystal in water); conditions: 100-200 μm, fully immersed in 10 μL of water
Protocol: One individual crystal of sodium chloride, Glucose monohydrate, anhydrous Glucose and of (Glucose)2⋅NaCl⋅H2O co-crystal prepared according to the method of Example 3 was tested for its dissolution behavior by microscope. The analysis was performed in analogy to the method described by Quilaqueo et al. (“Dissolution of NaCl crystals in artificial saliva and water by video-microscopy”, Food Research International 69, 2015, p. 373-380).
A digital microscope was used to perform video-microscopy on the co-crystals and their respective individual components. Crystal size in general ranged between 100-200 μm. Images were recorded on a DFC450 digital microscope from Leica Microsystems with a high quality 5 Megapixel CCD sensor. The light intensity and contrast were controlled by using a VH-K20 Variable Illumination. The software used to record and analyze the video images was provided by the supplier of the module Leica LAS MultiTime.
One individual crystal specimen of sufficient quality and crystallinity was fixed on the microscope table using double-face adhesive tape. The crystal was fully immersed in 10 μL of water and the video recorded in parallel. The recording was dissected into individual film stills and the remaining crystalline area was determined until complete dissolution occurred using the respective software.
Applying this methodology, a first order kinetic was used to interpret the result:
Where At is the area (μm^2) of the remaining solid crystal at a time t (in seconds), A0 is the initial area (μm^2) of the crystal, t is the time (s) and k is the constant (s^−1).

[2] = Glucose NaCl kinetics of dissolution via refractometry; conditions: 60 mL of water, stirring, particle size 100-200 μm, average of three experiments
Protocol: The (Glucose)2⋅NaCl⋅H2O co-crystals of Example 3 were tested for their dissolution behavior by refractometry. The equipment used was a RFM300+ refractometer by Bellingham and Stanley. The test samples were added to 60 mL of water, and the dissolution was measured under stirring at 50 rpm using a refractometer with one measurement/second for […]. Every dissolution experiment was performed three times and the average value was calculated. The particle size was 100-200 μm.

[3] = Dissolution kinetics via refractometry for the system sucrose/sodium chloride; conditions: 60 mL of water, room temperature, constant stirring, particle size 63-100 μm
Protocol: Changes in refraction of the solution were measured at room temperature while adding a defined amount of solid material to the solvent (60 mL of water) under constant stirring. The equipment used is composed of a magnetic stirrer and a digital refractive index probe (Fiso technologies) capable of constant measurement. Once the powder is added, refractive indices are recorded as a function of time. This technique was used to compare the dissolution behavior of the sucrose⋅NaCl⋅H2O co-crystal with its pure individual components as well as the physical mixture of the two pure ingredients. The particle size of all solids was standardized to be in between 63-100 μm.
Quantities Used for the Measurements:
Sucrose⋅NaCl⋅H2O co-crystal 2.00 g

| SMILES | dissolution speed (normalized refractive index versus time, FIG. 7) [3] | k, constant of first order dissolution kinetic (crystal area over time) [1] [s⁻¹] | 10% dissolution reached at [2] [s] | 50% dissolution reached at [2] [s] | 90% dissolution reached at [2] [s] | 90% dissolution reached at ([2]; listed as (Glucose)2⋅NaCl⋅H2O) [s] | 90% dissolution reached at ([2]; listed as (Glucose)2⋅NaCl⋅H2O co-crystals) [s] |
| --- | --- | --- | --- | --- | --- | --- | --- |
| O.OC[C@H]1O[C@H](O)[C@H](O)[C@@H](O)[C@@H]1O.OC[C@H]1O[C@H](O)[C@H](O)[C@@H](O)[C@@H]1O.[Cl-].[Na+] [(Glucose)2•NaCl•H2O co-crystal, (α-D-Glucose)2⋅NaCl⋅H2O] | – | 0.19 | 6 | 11 | 25 | 25 | ≤ 25 |
| OC[C@H]1OC(O)[C@H](O)[C@@H](O)[C@@H]1O (stereo partly drawn) [Anhydrous Glucose] | – | 0.14 | 6 | 17 | 289 | – | – |
| O.OC[C@H]1O[C@H](O)[C@H](O)[C@@H](O)[C@@H]1O [Glucose monohydrate, alpha-D-(+)-Glucose monohydrate] | – | 0.08 | 6 | 51 | 214 | – | – |
| [Cl-].[Na+] [NaCl, sodium chloride] | dissolves the fastest | 0.21 | 4 | 8 | 29 | – | – |

Second part, led by results:

| dissolution speed (normalized refractive index versus time, FIG. 7) [3] | SMILES | k, constant of first order dissolution kinetic (crystal area over time) [1] [s⁻¹] | 10% dissolution reached at [2] [s] | 50% dissolution reached at [2] [s] | 90% dissolution reached at [2] [s] | 90% dissolution reached at ([2]; listed as (Glucose)2⋅NaCl⋅H2O) [s] | 90% dissolution reached at ([2]; listed as (Glucose)2⋅NaCl⋅H2O co-crystals) [s] |
| --- | --- | --- | --- | --- | --- | --- | --- |
| dissolves much slower | OC[C@H]1O[C@@](CO)(O[C@H]2O[C@H](CO)[C@@H](O)[C@H](O)[C@H]2O)[C@@H](O)[C@@H]1O [Pure sucrose, (D)-(+)-Sucrose] | – | – | – | – | – | – |
| dissolved almost as fast | O.O.OCC1OC(OC2(CO)OC(CO)C(O)C2O)C(O)C(O)C1O.[Cl-].[Na+] (stereo not drawn) [sucrose⋅NaCl⋅H2O co-crystal, Sucrose⋅NaCl⋅2 H2O] | – | – | – | – | – | – |
